Results published in patent US10314804B2, “Composition containing norbixin for protecting cells of the retinal pigment epithelium” (BIOPHYTIS, priority 2015, dated 2019).
Entries after “also recorded” stand apart in the source; their conditions may differ. Where two headings read alike, the source gives them in different places.

Experiments:
[1] = tested on: primary cultures of adult pig RPE; assay: in vitro photoprotection test: RPE cells with A2E, blue light illumination, cell survival; type: cell-based; details: 20 μM (extract diluted to provide 20 μM of bixin), FIG. 1
Description: The term “blue radiation” is intended to mean the radiation corresponding to the blue band of the visible light spectrum, that is to say having a wavelength of between 435 and 490 nm. This model uses primary cultures of adult pig RPE. The cell survival is quantified by means of a cell viability test. At −48 h, the compounds to be tested (in 5 mM solution in DMSO) are added so as to obtain final concentrations of 1 to 20 μM), then at −19 h, A2E is added (final concentration 30 μM) and the cells are irradiated (time 0 h). 24 h later, the cell survival is measured. The acquisition of the images and also the processing thereof are carried out by means of a fluorescence microscope controlled by the Metamorph software and of a dedicated quantification program. The experiments are carried out on 96-well microplates in quadruplicate and the experiment is reproduced a minimum of four times. The results are expressed in the form of a ratio representing the number of live cells in the wells treated with the molecules to be tested, divided by the number of live cells in the control wells (treated with the dilution medium without A2E).

[2] = tested on: primary cultures of adult pig RPE; details: cited from earlier work; for photoprotective activity on RPE cells in earlier tests (FR 11 54172): 0.1 μM, 1 μM and 10 μM
[3] = bioavailability of bixin and norbixin, plasma analysis; type: in vivo, C57Bl/6 mice; details: for Cmax: 50 mg/kg; for AUC(0-t): read-out: AUC 0-24 h; for detection in plasma over time: after bixin ingestion
Description: Studies of the bioavailability of bixin and of norbixin were carried out in C57Bl/6 mice. The compounds were administered orally (50 mg/kg). Blood samples were taken after 0.25, 0.5, 1, 3, 6, 8 and 24 h and analyzed by HPLC-DAD (UV 460 nm)-MS/MS.

neuroganglion cells = details: Yamauchi et al., 2011; cited from earlier work
rats [4] = details: cited from earlier work
[5] = tested on: double KO mice (ABCA4−/−, RDH8−/−); assay: photoprotective activity by intravitreal injection, blue light exposure; type: in vivo
Source text: A genetically modified mouse model developed by Maeda et al. (2008) was used to test the photoprotective activity of norbixin. In this mouse model, two genes involved in the visual pigment cycle (ABCA4 and RDH8) are inactivated, which results in an early accumulation of A2E in the eyes (FIG. 5). This animal model is as a result similar to the human pathological condition, with of course its limits, associated with the differences in organization of the eyes between rodents and primates. 7-week-old mice were thus used to carry out unilateral intravitreal injections of norbixin (in order to obtain a final concentration in the vitreous body of 130 μM). After 24 h in the dark, the mice were subjected to an exposure to blue light (4000 lux, 1 h).

rats [6] = assay: rat blue light model, intraperitoneal injection; type: in vivo; details: 100 mg/kg i.p.
Description: The “rat blue light” model consists in subjecting the animals to a strong blue light for 6 hours in order to cause ocular damage that is assessed 7 days later by carrying out electroretinograms and then by histological analyses. An antioxidant compound, PBN (phenyl-N-tert-butylnitrone) is used as positive control (Ranchon et al., 2001; Tomita et al., 2005). The compounds of which it is sought to determine the photoprotective activity are injected (intraperitoneally) before and during the illumination phase. Said phase is carried out with Philips blue neon tubes (4.2 mW/cm^2) for 6 hours.
Three series of experiments were carried out with norbixin (100 mg/kg, four injections per rat of a solution at 50 mM in 9‰ NaCl, 4 rats/series) using PBN (phenyl-N-tert-butylnitrone, 50 mg/kg, solution at 20 mg/ml in 9‰ NaCl) as positive control.

[7] = cited from earlier work
[8] = presence of norbixin in the eyes after intraperitoneal injection; type: in vivo, double KO mice (ABCA4−/−, RDH8−/−)
Description: The presence of norbixin in the eyes was investigated in double KO mice (ABCA4^−/−, RDH8^−/−) 3 hours after intraperitoneal injection of norbixin (10 mg/kg). The eyes of 6 animals were dissected and the samples were extracted with acetonitrile, pooled and then analyzed by HPLC-MS/MS (FIG. 4), which made it possible to specifically detect the presence of norbixin in the RPE and the retina (table 2).
Glucuronidation had also been described in the case of crocetin (Asai et al., 2005).

[9] = tested on: double KO mice (ABCA4−/−, RDH8−/−); assay: photoprotective activity by chronic oral administration (supplemented feed, 3 months); type: in vivo
Description: A feed containing 0.3 mg/g of pure norbixin was prepared and given to double KO mice (ABCA4^−/−, RDH8^−/−) for a period of 3 months.

[10] = C57Bl/6, mouse, plasma, po, Bixin ingestion (50 mg/kg), analyte as labelled
[11] = C57Bl/6, mouse, po, Bixin ingestion (50 mg/kg), plasma, analyte as labelled

COC(=O)/C=C/C(C)=C\C=C\C(C)=C\C=C\C=C(C)\C=C\C=C(C)\C=C\C(=O)O [bixin, methylhydrogen 6,6′-diapocarotene-6,6′-dioate]
protection of RPE cells against phototoxicity induced in the presence of A2E (cell survival) [1]: effectively protect
photoprotective activity on RPE cells in earlier tests (FR 11 54172) [2]: do not have any photoprotective activity; also recorded: ineffective
Cmax [3, 10]: 833 ng/mL
AUC(0-t) [3, 11]: 1670 ng·h/mL
Tmax ([3]; C57Bl/6, mouse, po, Bixin ingestion (50 mg/kg), plasma, analyte as labelled, read-out: Tmax): 30 min
detection in plasma over time ([3]; oral 50 mg/kg): no longer detected after 8 hours
conversion of ingested compound ([3]; oral 50 mg/kg): rapidly converted into norbixin

CC(/C=C/C=C(\C)C(=O)O)=C\C=C\C=C(C)\C=C\C=C(/C)C(=O)O [crocetin, 8,8′-diapocarotene-8,8′-dioate]
protection against oxidative stress (neuroganglion cells): protects

O=c1oc2c(O)c(O)cc3c(=O)oc4c(O)c(O)cc1c4c23 [ellagic acid]
photoprotective effect on RPE cells in earlier tests (FR 11 54172) ([2]; 10 μM and 20 μM): advantageous photoprotective effect

CC(=C/C=C/C(C)=C/C=C/C=C(C)/C=C/C=C(C)/C=C/C(=O)O)/C=C/C(=O)O [norbixin]
intake up to which no toxicity was observed (rats [4]; rat, in vivo): 20 mg/kg/day
no observable adverse effect level (NOAEL) (rats [4]; rats): 69 mg/kg/day of body weight
protection of RPE cells against phototoxicity induced in the presence of A2E (cell survival) [1]: effectively protect
photoprotective activity on RPE cells in earlier tests (FR 11 54172) [2]: do not have any photoprotective activity
elimination from the eye after intravitreal injection ([5]; 24 h after the intravitreal injection): virtually eliminated
electroretinogram (A- and B-waves) ([5]; intravitreal, 130 μM in vitreous body, blue light 4000 lux 1 h, 7 days later, FIG. 6): protective effect
thickness of the layer of external nuclei (photoreceptors), histology ([5]; intravitreal, 130 μM, FIG. 7): protective effect
electroretinograms (A-waves and B-waves) (rats [6]; four injections, blue light 6 hours, 7 days later, FIG. 8B): significant efficacity
survival of the photoreceptors, histology (rats [6]; FIGS. 9A and 9B): confirm the photoprotective action
Tmax ([3]; Bixin ingestion (50 mg/kg), plasma, analyte as labelled): Norbixin 0.5 h
Cmax [3, 10]: 649 ng/mL
Cmax ([3]; C57Bl/6, mouse, plasma, po, Norbixin ingestion (50 mg/kg)): 12400 ng/mL
bioavailability ([3]; C57Bl/6, mouse, plasma, intraperitoneal injection (5 mg/kg) versus oral administration (50 mg/kg), FIG. 3b): 55%
AUC(0-t) [3, 11]: 1340 ng·h/mL
AUC ([3]; C57Bl/6, mouse, po, Norbixin ingestion (50 mg/kg), plasma): 41600 ng·h/mL
Tmax ([3]; C57Bl/6, mouse, po, Norbixin ingestion (50 mg/kg), plasma, read-out: Tmax): 30 min
detection in plasma over time ([3]; oral 50 mg/kg): no longer detected after 8 hours
acceptable daily intake (ADI) ([7]; JECFA/67/FC): at most 0.6 mg/kg/day of body weight
daily intake with no observable adverse effect level in humans, equivalent ([7]; equivalent of rat NOAEL): 11 mg/kg
Norbixin (ng/organ), Crystalline ([8]; 3 hours after i.p. 10 mg/kg, Crystalline): <LOQ
Norbixin (ng/organ), RPE ([8]; 3 hours after i.p. 10 mg/kg, RPE): 5.15 ng/organ
Norbixin (ng/organ), Retina ([8]; 3 hours after i.p. 10 mg/kg, Retina): 2.40 ng/organ
Norbixin (ng/organ), Total ([8]; 3 hours after i.p. 10 mg/kg, Total): 7.55 ng/organ
Norbixin (ng/organ), Vitreous humor ([8]; 3 hours after i.p. 10 mg/kg, Vitreous humor): <LOQ
conjugated forms in plasma and eyes ([8]; HPLC-MS/MS, FIG. 4): gives two monoglucuronides
accumulation of norbixin in the eyes ([9]; chronic treatment, feed, 3 months): no significant accumulation
A2E accumulation in the eyes ([9]; feed 0.3 mg/g, 3 months, FIG. 10): reduction in A2E accumulation
amplitude of the electroretinogram (ERG) ([9]; feed 0.3 mg/g, 3 months, FIG. 11): positive effect
daily intake that significantly slows down the retinal degeneration ([9]; mice, oral administration): 48 mg/kg of body weight
